Assay results from article PMC6728334 (Scientific Reports, 2019).
Values joined by “and” are separate entries in the source; they are usually repeats but may differ in a detail not shown here. Equal entries are not always repeated. “Also recorded” adds a separate entry of the source. Where two headings read alike, the source gives them in different places.

How the values were obtained:
[1] = target: T1, Uba1 (Homo sapiens, UniProt P22314); experiment: Uba1~ubiquitin thioester formation (Uba1, GST-ubiquitin, ATP; silver-stained gels); assay type: biochemical; settings: for Activity in the Uba1~ubiquitin thioester formation assay (in words): up to 500 μM
T1 construct: His; host or cells: E. coli BL21(DE3)
T1 sequence (P22314 1-1058): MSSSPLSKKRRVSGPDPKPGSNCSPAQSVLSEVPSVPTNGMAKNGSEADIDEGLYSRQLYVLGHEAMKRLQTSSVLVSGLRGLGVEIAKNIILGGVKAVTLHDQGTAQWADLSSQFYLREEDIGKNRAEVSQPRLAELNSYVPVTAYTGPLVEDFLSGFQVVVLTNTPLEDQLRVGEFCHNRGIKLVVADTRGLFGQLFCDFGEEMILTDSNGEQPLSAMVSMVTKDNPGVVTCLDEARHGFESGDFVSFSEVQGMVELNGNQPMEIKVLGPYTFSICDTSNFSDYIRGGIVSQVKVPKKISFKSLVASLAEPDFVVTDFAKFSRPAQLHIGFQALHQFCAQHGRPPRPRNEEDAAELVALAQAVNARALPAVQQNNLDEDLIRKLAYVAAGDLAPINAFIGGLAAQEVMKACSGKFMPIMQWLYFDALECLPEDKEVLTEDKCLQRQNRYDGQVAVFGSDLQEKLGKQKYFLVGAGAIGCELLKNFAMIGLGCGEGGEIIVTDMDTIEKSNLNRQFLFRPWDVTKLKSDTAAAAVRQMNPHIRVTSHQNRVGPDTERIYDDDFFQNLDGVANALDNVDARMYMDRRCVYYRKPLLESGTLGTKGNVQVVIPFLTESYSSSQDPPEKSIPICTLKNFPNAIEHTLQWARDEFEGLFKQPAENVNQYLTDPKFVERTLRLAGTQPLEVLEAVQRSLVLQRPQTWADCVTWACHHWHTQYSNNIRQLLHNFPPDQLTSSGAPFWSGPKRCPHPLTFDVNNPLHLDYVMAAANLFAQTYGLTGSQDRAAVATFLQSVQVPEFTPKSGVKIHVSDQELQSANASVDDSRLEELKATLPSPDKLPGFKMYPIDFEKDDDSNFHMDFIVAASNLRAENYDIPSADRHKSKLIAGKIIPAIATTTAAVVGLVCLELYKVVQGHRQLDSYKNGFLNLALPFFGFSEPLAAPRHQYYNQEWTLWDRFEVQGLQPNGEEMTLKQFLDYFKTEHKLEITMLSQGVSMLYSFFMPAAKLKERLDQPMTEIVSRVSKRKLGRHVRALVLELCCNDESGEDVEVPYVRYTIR

[2] = test system: PCNA ubiquitination (RFC, Uba1, Rad6, Rad18, PCNA, ubiquitin); experiment: Reconstituted PCNA ubiquitination cascade, Western blot quantitation; assay type: biochemical, human; settings: for IC50: 15 min preincubation, 2 h with ATP, 2% DMSO, nonlinear regression, read-out: IC50 for inhibition of PCNA ubiquitination; for Activity in the PCNA ubiquitination assay (in words): up to 500 μM
Procedure: The PCNA loading and ubiquitination cascade was reconstituted in 96-well white round-bottom polypropylene plates (Greiner) in a buffer consisting of 40 mM Tris-HCl, pH 7.5, 8 mM MgCl2, and 10% glycerol with 2.5 nM nicked circular pUC19, 50 nM RFC, 50 nM Uba1, 250 nM Rad6–Rad18 dimer, 50 nM FLAG-PCNA, and 250 nM biotin-ubiquitin (final concentrations). Compounds were added to the samples, with preincubation for 15 min at 25 °C before addition of ATP to a final concentration of 2 mM (to initiate the reaction cascade), followed by incubation for 2 h at 25 °C. The reactions were then terminated by addition of EDTA to 20 mM for Alpha assays or Laemmli sample buffer for Western blot analyses. For Alpha assays, reaction mixtures were diluted in buffer containing streptavidin-conjugated donor beads and anti-FLAG antibody-conjugated acceptor beads in opaque white microplates under low-light conditions, as recommended by the Alpha bead manufacturer, PerkinElmer. The plates were read on a Tecan Spark microplate reader at 23 °C. For Western blot analyses, FLAG-PCNA was detected with anti-FLAG antibody, and quantitations from the Western blot images was performed with NIH ImageJ software[74] and then analyzed with GraphPad Prism software.

[3] = test system: HEK 293FT cells; experiment: Cell survival, Alamar Blue (resazurin) assay; assay type: cell-based, human; settings: for IC50 / Activity on cell viability / survival (in words): 24-h treatment; for IC50: 2% DMSO, read-out: IC50 for inhibition of cell survival
Procedure: For cellular experiments, HEK 293FT cells (a fast-growing SV40 large T antigen-transformed strain of HEK 293 cells designed for enhanced transgene expression in transient transfections) were grown in growth medium consisting of Dulbecco’s modified Eagle’s medium (DMEM; Sigma-Aldrich), supplemented with 10% fetal bovine serum (FBS; Gibco) in a humified cell culture incubator at 37 °C with 5% CO2.
(§1) HEK 293FT cells were evaluated for survival following compound treatments by the Alamar Blue (resazurin) assay. Cells were plated onto 96-well plates at 4.8 × 10^4 cells/well in 0.5% FBS-containing DMEM at 37 °C and 5% CO2. After 24 h, compounds were added. After 24-h treatment, resazurin was added to a final concentration of 0.12 mM. Following 4-h incubation, conversion to the resorufin product was measured (with excitation at 542 nm and emission at 590 nm) on a fluorescence plate reader.

[4] = test system: Uba1-overexpressing HEK 293 cells; experiment: Cell survival in Uba1-overexpressing cells vs empty vector-transfected control cells; assay type: cell-based, human; settings: 24-h treatment at IC50 of each compound (Myr 3 mM, DM 650 μM; puromycin 1 and 2 μM)
Procedure: as §1
(§2) HEK 293FT cells (1.5 × 10^6) were plated onto 6-cm plates in 5 ml of DMEM with 10% FBS and allowed to grow for 24 h at 37 °C and 5% CO2. For transfections, 6 μg of plasmid DNA (empty vector containing FLAG-tag sequence only, FLAG-Uba1, or FLAG-ubiquitin) and 10 μl of Lipofectamine 2000 were used for each plate. The DNA and the reagent were diluted separately in 500 μl of Opti-MEM (Gibco), and each was mixed by vortexing. After 5-min incubation, the two tubes were combined and incubated for another 20 min. Prior to adding the transfection solution to the cells, the medium was replaced with 4 ml of Opti-MEM. The transfection solution was then added dropwise. After 3-h incubation, the medium was changed to 0.5% FBS-containing DMEM, and the cells were plated for cell survival experiments, as above.

[5] = test system: ubiquitin-overexpressing HEK 293 cells; experiment: Cell survival in ubiquitin-overexpressing cells vs empty vector-transfected control cells; assay type: cell-based, human; settings: 24-h treatment at IC50 of each compound (Myr 3 mM, DM 650 μM; puromycin 1 and 2 μM)
Procedure: as §1, §2

[6] = Uba1 preincubated with compound 15 min, 2 h reaction, 2% DMSO, read-out: IC50 for inhibition of Uba1~ubiquitin thioester formation

| SMILES | IC50 [1, 6] | Activity in the Uba1~ubiquitin thioester formation assay (in words) [1] | IC50 [2] | Activity in the PCNA ubiquitination assay (in words) [2] | Activity in the cell viability experiments at 500 μM ([3]; 24 h) | IC50 ([3]; Homo sapiens, HEK293FT, 24 h) | Effect of Uba1 overexpression on cell survival [4] | Activity on cell viability / survival (in words) [3] | IC50 [3] | Effect of ubiquitin overexpression on cell survival [5] | IC50 ([1]; Fig. 6, unit printed as M, read-out: IC50 (Uba1~Ub)) |
| --- | --- | --- | --- | --- | --- | --- | --- | --- | --- | --- | --- |
| Oc1cc(O)c2c(c1)O[C@H](c1ccc(O)c(O)c1)[C@@H](O)C2 [Cat, (+)-Catechin] | > 500 µM | inactive | > 500 µM | inactive | only very weak activity | > 500 µM | – | – | – | – | – |
| CCCCCCCCCCCCOC(=O)c1cc(O)c(O)c(O)c1 [DG, n-Dodecyl gallate] | 35 µM | active | 1.63 µM | active | – | 33.5 µM | Does not protect | active | 33.5 µM | Protects | – |
| O=C1c2c(O)cc(O)cc2O[C@H](c2cc(O)c(O)c(O)c2)[C@H]1O [DM, (+)-Dihydromyricetin] | 14.3 µM | – | 66.4 µM | active | only very weak activity | > 500 µM | Does not protect | very weak activity | – | Protects | 14.3 µM |
| Oc1cc(O)c2c(c1)O[C@H](c1ccc(O)c(O)c1)[C@H](O)C2 [EC, (–)-Epicatechin] | > 500 µM | inactive | > 500 µM | inactive | only very weak activity | > 500 µM | – | – | – | – | – |
| O=C(O[C@@H]1Cc2c(O)cc(O)cc2O[C@@H]1c1ccc(O)c(O)c1)c1cc(O)c(O)c(O)c1 [ECG, (–)-Epicatechin-3-gallate] | 4.2 µM and 4.22 µM | active | 0.537 µM | active | – | 262 µM | mitigated; also recorded: Protects | active | 262 µM | mitigated; also recorded: Protects | – |
| Oc1cc(O)c2c(c1)O[C@H](c1cc(O)c(O)c(O)c1)[C@H](O)C2 [EGC, (–)-Epigallocatechin] | 7.6 µM and 7.58 µM | weak activity | 43.3 µM | weak activity | – | 176 µM | not affected; also recorded: Does not protect | measurable cytostatic/cytotoxic activity | 176 µM | not affected; also recorded: Does not protect | – |
| O=C(O)c1cc(O)c(O)c(O)c1 [GA, Gallic acid] | > 500 µM | inactive | > 500 µM | inactive | – | 241 µM | not mitigated; also recorded: Does not protect | little effects | 241 µM | not mitigated; also recorded: Does not protect | – |
| CCCCCCCCOC(=O)c1cc(O)c(O)c(O)c1 [OG, n-Octyl gallate] | 80.6 µM | active | 10.3 µM | active | – | 38.7 µM | Protects | active | – | Protects | – |
| CCCOC(=O)c1cc(O)c(O)c(O)c1 [PG, n-Propyl gallate] | > 500 µM | inactive | > 500 µM | inactive | – | 176 µM | not mitigated; also recorded: Does not protect | little effects | 176 µM | not mitigated; also recorded: Does not protect | – |
| COc1ccc(C[C@H](N)C(=O)N[C@H]2[C@@H](O)[C@H](n3cnc4c(N(C)C)ncnc43)O[C@@H]2CO)cc1 [puromycin, reference compound] | – | – | – | – | – | – | no differences | – | – | no differences | – |
